This note sets out measurements from ChEMBL document CHEMBL1201862, “PubChem BioAssay data set” (2004).

Among the test systems are 786-0; A549; CAKI-1; IGROV-1; K562; KM12; LOX IMVI; MDA-MB-435; MDA-N; MOLT-4; NCI-H522; OVCAR-3; RPMI-8226; SF-268; SK-MEL-5; SW-620; UACC-62; UO-31; CCRF-CEM.
What all share (test): NCI anticancer screen, dose series, 48 h

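Where inhibition never reached the appropriate level, the endpoint shown equals the highest concentration tested. Otherwise, values were interpolated linearly from a five-concentration, 48-hour dose response in 96-well plates. The concentration for 50% growth inhibition is given as GI50.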 Activity calls are given as the source filed them. No stated cut-off is given here; in the data, active = GI50 up to about 1.1 µM and inactive = higher.

Turning to `N#CC1(C#N)N[C@@H](c2ccsc2)[C@H]2C(=O)N(c3ccccc3)C(=O)[C@H]21`, the GI50 with 786-0 was > 100 µM (inactive); in the assay with A549 it was > 100 µM (inactive); in the assay with CAKI-1, 43 µM (inactive); with IGROV-1, 60.7 µM (inactive); with K562, 51.9 µM (inactive); in the assay on KM12 it was > 100 µM (inactive). Moreover, the GI50 with LOX IMVI is 37.3 µM (inactive); in the assay on MDA-MB-435, 45.7 µM (inactive); in the assay on MDA-N, 38.3 µM (inactive); with MOLT-4 it was 36.7 µM (inactive); in the assay with NCI-H522 it was > 100 µM (inactive); with OVCAR-3 it was > 100 µM (inactive). In addition, the GI50 in the assay with RPMI-8226 is 18.7 µM (inactive); in the assay with SF-268, 84.5 µM (inactive); in the assay with SK-MEL-5, 35.4 µM (inactive); in the assay with SW-620 it was > 100 µM (inactive); with UACC-62, 28.8 µM (inactive); in the assay on UO-31, > 100 µM (inactive).
As for `C[n+]1c2ccccc2n2c3ccccc3c(NCCCn3ccnc3)c(C#N)c21`, the GI50 in the assay with 786-0 is 2.04 µM (inactive); in the assay on A549, 3.92 µM (inactive); in the assay on CAKI-1, 10.5 µM (inactive); in the assay on K562 it was 2.39 µM (inactive); in the assay with KM12, 2.01 µM (inactive); in the assay with LOX IMVI, 1.49 µM (inactive). The GI50 was 2.23 µM (inactive) with MDA-MB-435; 2.7 µM (inactive) with MDA-N; 0.533 µM (active) in the assay with MOLT-4; 0.575 µM (active) in the assay on NCI-H522; 2.36 µM (inactive) with OVCAR-3; 1.22 µM (inactive) with RPMI-8226. In addition, the GI50 in the assay with SF-268 was 1.44 µM (inactive); with SK-MEL-5, 3.09 µM (inactive); in the assay with SW-620, 1.49 µM (inactive); in the assay on UACC-62 it was 2.74 µM (inactive); in the assay on UO-31 it was 7.21 µM (inactive).
Turning to `CC1(C)OC2COC3([C@@H]4OC(C)(C)O[C@@H]4CO)OC(C)(C)OC3C2O1` (stereo not given in full), the GI50 in the assay on 786-0, in the assay with A549, with CAKI-1, with CCRF-CEM, in the assay with IGROV-1 and in the assay with K562 was > 100 µM (inactive) in each case. In addition, the GI50 with KM12, in the assay on LOX IMVI, in the assay on MDA-MB-435, in the assay on MDA-N, in the assay with OVCAR-3 and in the assay on RPMI-8226 was > 100 µM (inactive) throughout. For the same compound, the GI50 in the assay on SK-MEL-5, in the assay with SW-620, in the assay on UACC-62 and with UO-31 was > 100 µM (inactive) throughout.
With `CN1C2=Nc3n(C)c4ccccc4[n+]3CN2c2ccccc21`, the GI50 in the assay with 786-0 was 36.2 µM (inactive); in the assay on A549 it was 37.6 µM (inactive); in the assay with CAKI-1, > 100 µM (inactive); with CCRF-CEM, 47.4 µM (inactive); with IGROV-1 it was 29.9 µM (inactive); in the assay on K562, 29.5 µM (inactive). Also, the GI50 in the assay on KM12 was 8.73 µM (inactive); in the assay on MDA-MB-435, 26.5 µM (inactive); in the assay with MDA-N it was 17.8 µM (inactive); in the assay with MOLT-4 it was 16.8 µM (inactive); in the assay on NCI-H522, 16.8 µM (inactive); with OVCAR-3 it was 10.8 µM (inactive). For the same compound, the GI50 was 41.1 µM (inactive) with RPMI-8226; 13.1 µM (inactive) with SF-268; 12.6 µM (inactive) with SK-MEL-5; 24.3 µM (inactive) in the assay with SW-620; 17 µM (inactive) in the assay on UACC-62; > 100 µM (inactive) in the assay with UO-31.
In the case of `Cc1cn(C(C)OCCN2C(=O)c3ccccc3C2=O)c(=O)[nH]c1=O` (stereo not given), the GI50 in the assay with 786-0, in the assay with A549, in the assay with CAKI-1, with CCRF-CEM, in the assay on IGROV-1 and in the assay on K562 was > 100 µM (inactive) throughout. Further, the GI50 in the assay on KM12, with LOX IMVI, with MDA-MB-435, in the assay on MDA-N, in the assay with MOLT-4 and with OVCAR-3 was > 100 µM (inactive) in each case. The GI50 with RPMI-8226, in the assay on SK-MEL-5, with SW-620, in the assay with UACC-62 and in the assay on UO-31 was > 100 µM (inactive) each time.
With `CCCOc1ccc(/C=C/C2=[N+](CCO)CCO2)cc1`, the GI50 in the assay with 786-0, in the assay on A549, in the assay with CAKI-1, in the assay on CCRF-CEM, in the assay on IGROV-1 and with K562 was > 100 µM (inactive) throughout. Moreover, the GI50 with KM12, in the assay with MDA-MB-435, in the assay on MDA-N, with MOLT-4, in the assay on NCI-H522 and in the assay on OVCAR-3 was > 100 µM (inactive) throughout. The GI50 with RPMI-8226, in the assay with SF-268, with SK-MEL-5, in the assay with SW-620, with UACC-62 and with UO-31 was > 100 µM (inactive) in each case.
Regarding `Cc1nc2c(cc1C(=O)NN)c(=O)n(C)c(=O)n2C`, the GI50 in the assay with 786-0, in the assay on A549, in the assay on CAKI-1, in the assay with CCRF-CEM, with IGROV-1 and in the assay on K562 was > 100 µM (inactive) throughout. The GI50 in the assay with KM12, in the assay on MDA-MB-435, in the assay with MDA-N, in the assay on MOLT-4, in the assay with OVCAR-3 and in the assay with RPMI-8226 was > 100 µM (inactive) throughout. Besides, the GI50 in the assay on SK-MEL-5, with SW-620, with UACC-62 and with UO-31 was > 100 µM (inactive) each time.
On to `Cc1ccc(SCC(CF)OCn2cc(F)c(=O)[nH]c2=O)cc1` (stereo not given), for which the GI50 was > 100 µM (inactive) in the assay with 786-0; > 100 µM (inactive) with A549; > 100 µM (inactive) in the assay on CAKI-1; 55.2 µM (inactive) in the assay on CCRF-CEM; > 100 µM (inactive) with IGROV-1; > 100 µM (inactive) in the assay with K562. In addition, the GI50 with LOX IMVI, with MDA-MB-435, with MDA-N, with MOLT-4, in the assay with NCI-H522 and with OVCAR-3 was > 100 µM (inactive) throughout. Also, the GI50 in the assay with RPMI-8226, with SF-268, in the assay on SK-MEL-5, in the assay with SW-620 and in the assay on UO-31 was > 100 µM (inactive) each time.
As for `CC(=O)CCCCC(=O)Nc1ccc(CC(NC(=O)OC(C)(C)C)C(=O)NCC(=O)OCc2ccccc2)cc1` (stereo not given), the GI50 in the assay on 786-0 is 21.7 µM (inactive); in the assay with A549, 53.7 µM (inactive); with CAKI-1, 15.7 µM (inactive); in the assay on IGROV-1, 33.3 µM (inactive); in the assay on K562 it was 17.3 µM (inactive); in the assay with KM12, 29.4 µM (inactive). The GI50 is 15.1 µM (inactive) with LOX IMVI; 21.2 µM (inactive) with MDA-MB-435; 21 µM (inactive) in the assay with MDA-N; 24.1 µM (inactive) in the assay on MOLT-4; 23.6 µM (inactive) with NCI-H522; 14.8 µM (inactive) in the assay with OVCAR-3. The GI50 is 18 µM (inactive) with RPMI-8226; 22.4 µM (inactive) in the assay on SF-268; 14.7 µM (inactive) in the assay on SK-MEL-5; 16.6 µM (inactive) in the assay with SW-620; > 10 µM (inactive) in the assay with UACC-62; 22.7 µM (inactive) with UO-31.
Regarding `COc1ccc(NC(C)c2ccncc2)cc1` (stereo not given), the GI50 in the assay on 786-0, in the assay with A549, with CAKI-1, in the assay on CCRF-CEM, with K562 and in the assay on KM12 was > 100 µM (inactive) each time. In addition, the GI50 with LOX IMVI, with MDA-MB-435, in the assay with MDA-N, in the assay with MOLT-4, in the assay on NCI-H522 and in the assay on OVCAR-3 was > 100 µM (inactive) in each case. The GI50 in the assay with RPMI-8226, in the assay on SF-268, with SK-MEL-5, in the assay on SW-620 and in the assay with UO-31 was > 100 µM (inactive) throughout.
For `N/N=C1/C(=N/O)CCc2nonc21`, the GI50 in the assay with 786-0, in the assay with A549, in the assay with CAKI-1, in the assay on CCRF-CEM, in the assay with IGROV-1 and in the assay with K562 was > 100 µM (inactive) throughout. In addition, the GI50 in the assay with KM12, in the assay with LOX IMVI, in the assay on MDA-MB-435, in the assay on MDA-N, in the assay with MOLT-4 and with OVCAR-3 was > 100 µM (inactive) throughout. Further, the GI50 is > 100 µM (inactive) in the assay on RPMI-8226; > 100 µM (inactive) with SF-268; > 100 µM (inactive) in the assay on SK-MEL-5; > 100 µM (inactive) with SW-620; > 100 µM (inactive) in the assay on UACC-62; 28.6 µM (inactive) in the assay on UO-31.
